How the values were obtained:
[1] = compatibility investigation of binary mixtures with vitamin B12 by DSC; format: physicochemical; set-up: key: ++: good compatibility expected below the stated temperature; +: compatibility below the stated temperature; ++/−: indifferent compatibility, possibly good compatibility below the stated temperature; +/−−: indifferent compatibility, appears to be compatible below the stated temperature; −: (strong) interaction, incompatible; −−−: (strong) interaction, incompatible; conditions: binary mixture with vitamin B12, DSC, various gases and temperatures
Procedure: Both vitamin B12 and 5-methyl-(6S)-tetrahydrofolate are unstable in the presence of atmospheric oxygen and humidity. […] Measurements of the incompatibilities between the intended formulation ingredients were carried out by a thermoanalytical method (DSC, differential scanning calorimetry). This allows incompatibilities to be recognized through low enthalpies of fusion and melting temperatures. These are caused for example by a reduced proportion of crystalline substance and the increase in impurities. In the determination, binary mixtures of excipients or active ingredients in each case with vitamin B12 were investigated, and the compatibility was examined under the influence of various gases and temperatures. […]

[2] = cited from earlier work

Compound | Compatibility [1] | reduction of incidence of neural tube defects ([2]; folic acid fortification of food products, Canada and Chile) | reduction of neural tube defects ([2]; intake at the right time around conception)
C[C@]12CCC(=O)C=C1[C@@H]1C[C@@H]1[C@H]1[C@@H]3[C@@H]4C[C@@H]4[C@@]4(CCC(=O)O4)[C@@]3(C)CC[C@@H]12 [Drospirenone] | + |  | 
OC[C@H]1O[C@@H](O[C@H]2[C@H](O)[C@@H](O)C(O)O[C@@H]2CO)[C@H](O)[C@@H](O)[C@H]1O (some centres unmarked) [Lactose] | + |  | 
Nc1nc2ncc(CNc3ccc(C(=O)N[C@@H](CCC(=O)O)C(=O)O)cc3)nc2c(=O)[nH]1 [folic acid] |  | more than 50% | 50-70%
Magnesium stearate | ++/− |  | 

Reference: US10463666B2, “Pharmaceutical composition comprising progestogens and/or estrogens and 5-methyl-(6S)-tetrahydrofolate” (MERCK & CIE, priority 2005, dated 2019)
